For assay [1], the system named is HCC1937. In words: Cytotoxicity against human HCC1937 cells assessed as inhibition of cell growth incubated for 48 hrs by MTT assay. In kind it is functional, cell-based. The settings on record: HCC1937, 48 h.
Assay [2] has as its system MDA-MB-231. Briefly: Cytotoxicity against human MDA-MB-231 cells assessed as inhibition of cell growth incubated for 48 hrs by MTT assay. The class given is functional, cell-based. The settings on record: MDA-MB-231, 48 h.
Assay [3] concerns MCF7. In words: Cytotoxicity against human MCF7 cells harbouring wild type BRCA1/2 assessed as inhibition of cell growth incubated for 48 hrs by MTT assay. In kind it is functional, cell-based. The settings on record: MCF7, 48 h. For orientation: Tetrazolium dyes change colour on reduction, which living cells bring about.
Assay [4] deals with MCF7. In words: Cytotoxicity against human MCF7 cells harbouring wild type BRCA1/2 assessed as inhibition of cell growth at 10 uM incubated for 48 hrs by MTT assay relative to control. The class given is functional.
For assay [5], the system named is MCF7. In words: Synergistic cytotoxicity against human MCF7 cells harbouring wild type BRCA1/2 assessed as combination index at 10 uM incubated for 48 hrs in presence of 0.8 uM adriamycin by MTT assay. The class given is functional.
Assay [6] concerns SK-BR-3. Briefly: Cytotoxicity against human SK-BR-3 cells harbouring wild type BRCA1/2 assessed as inhibition of cell growth incubated for 48 hrs by MTT assay. The class given is functional, cell-based. The settings on record: SK-BR-3, 48 h.
Assay [7] concerns MX1. In words: Cytotoxicity against human MX1 cells harbouring BRCA1 mutant assessed as inhibition of cell growth incubated for 48 hrs by MTT assay. As to conditions: MX1, 48 h. In kind it is functional, cell-based.
The subject of assay [8] is MCF7. Briefly: Potentiation of adriamycin-induced cytotoxicity in human MCF7 cells harbouring wild type BRCA1/2 assessed as inhibition of cell growth at 10 uM incubated for 48 hrs in presence of 0.8 uM adriamycin by MTT assay relative to control. In kind it is functional.
Assay [9] has as its system MCF7. In words: Synergistic cytotoxicity against human MCF7 cells harbouring wild type BRCA1/2 assessed as combination index at 25 uM incubated for 48 hrs in presence of 0.8 uM adriamycin by MTT assay. In kind it is functional.
The subject of assay [10] is MCF7. Briefly: Cytotoxicity against human MCF7 cells harbouring wild type BRCA1/2 assessed as inhibition of cell growth at 25 uM incubated for 48 hrs by MTT assay relative to control. The class given is functional.
The subject of assay [11] is MCF7. In words: Potentiation of adriamycin-induced cytotoxicity in human MCF7 cells harbouring wild type BRCA1/2 assessed as inhibition of cell growth at 25 uM incubated for 48 hrs in presence of 0.8 uM adriamycin by MTT assay relative to control. The class given is functional.
The test system of assay [12] is MDA-MB-468. Briefly: Cytotoxicity against human MDA-MB-468 cells assessed as inhibition of cell growth incubated for 48 hrs by MTT assay. As to conditions: MDA-MB-468, 48 h. The class given is functional, cell-based.
Assay [13] deals with MCF7. Briefly: Potentiation of adriamycin-induced cytotoxicity in human MCF7 cells harbouring wild type BRCA1/2 assessed as inhibition of cell growth at 17.5 uM incubated for 48 hrs in presence of 0.8 uM adriamycin by MTT assay relative to control. In kind it is functional.
Assay [14] concerns MCF7. In words: Synergistic cytotoxicity against human MCF7 cells harbouring wild type BRCA1/2 assessed as combination index at 17.5 uM incubated for 48 hrs in presence of 0.8 uM adriamycin by MTT assay. The class given is functional.
In assay [15] the test system is MCF7. In words: Cytotoxicity against human MCF7 cells harbouring wild type BRCA1/2 assessed as inhibition of cell growth at 17.5 uM incubated for 48 hrs by MTT assay relative to control. The class given is functional.
Assay [16] addresses Epidermal growth factor receptor (Homo sapiens) (UniProt P00533). Briefly: Inhibition of human EGFR in human HCC1937 cells assessed as reduction in EGFR level at 10 uM incubated for 48 hrs by Western blot analysis. The class given is cell-based. Background: In western blotting, separated proteins are transferred to a membrane and probed.
For assay [17] the target is unchanged. In words: Inhibition of human EGFR in human HCC1937 cells assessed as reduction in phosphorylated EGFR level at 10 uM incubated for 48 hrs by Western blot analysis. In kind it is cell-based.
The target of assay [18] is Poly [ADP-ribose] polymerase 1 (Homo sapiens) (UniProt P09874). In words: Inhibition of PARP-1 (unknown origin) at 0.1 uM preincubated for 10 mins followed by PARP cocktail addition and measured after 60 mins by colorimetric assay relative to control. As to conditions: time 70.0 min.
Chain of Poly [ADP-ribose] polymerase 1 (Homo sapiens) (P09874 whole entry): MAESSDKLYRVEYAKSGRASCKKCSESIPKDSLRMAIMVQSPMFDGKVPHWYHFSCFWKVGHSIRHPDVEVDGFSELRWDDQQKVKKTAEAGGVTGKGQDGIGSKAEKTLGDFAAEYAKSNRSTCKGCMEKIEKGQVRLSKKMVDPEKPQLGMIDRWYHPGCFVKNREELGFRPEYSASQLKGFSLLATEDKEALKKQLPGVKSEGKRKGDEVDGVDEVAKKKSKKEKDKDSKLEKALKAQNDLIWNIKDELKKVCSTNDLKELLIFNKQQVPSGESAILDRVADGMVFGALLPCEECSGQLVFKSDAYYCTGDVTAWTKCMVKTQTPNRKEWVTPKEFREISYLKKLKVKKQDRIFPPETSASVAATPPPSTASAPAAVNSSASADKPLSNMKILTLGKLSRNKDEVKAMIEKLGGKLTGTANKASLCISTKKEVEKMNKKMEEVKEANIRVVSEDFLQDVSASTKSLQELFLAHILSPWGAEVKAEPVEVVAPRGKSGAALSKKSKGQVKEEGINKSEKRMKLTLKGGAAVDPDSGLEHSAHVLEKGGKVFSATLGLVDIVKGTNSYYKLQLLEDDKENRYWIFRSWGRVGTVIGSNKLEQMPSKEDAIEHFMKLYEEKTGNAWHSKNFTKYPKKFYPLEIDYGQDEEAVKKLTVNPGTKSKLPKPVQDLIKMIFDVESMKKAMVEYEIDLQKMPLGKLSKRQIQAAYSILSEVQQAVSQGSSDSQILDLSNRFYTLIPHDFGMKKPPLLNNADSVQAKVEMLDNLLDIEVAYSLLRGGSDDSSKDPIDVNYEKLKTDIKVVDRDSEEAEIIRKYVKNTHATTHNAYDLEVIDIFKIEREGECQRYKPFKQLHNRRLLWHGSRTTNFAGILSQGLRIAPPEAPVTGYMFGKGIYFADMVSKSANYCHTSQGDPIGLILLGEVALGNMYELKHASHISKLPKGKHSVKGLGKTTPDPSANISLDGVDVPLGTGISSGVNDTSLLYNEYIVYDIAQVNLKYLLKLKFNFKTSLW
Assay [19] has the same target. Briefly: Inhibition of PARP-1 in human MCF7 cells assessed as inhibition of PARylation by measuring reduction in PARP protein expression at 1 uM pretreated with adriamycin followed by compound addition and measured after 48 hrs by Western bot analysis. In kind it is cell-based.

Structures are written as SMILES. Activity calls are given as the source filed them. The rule behind the calls is not given here.

Chain of Epidermal growth factor receptor (Homo sapiens) (P00533 whole entry): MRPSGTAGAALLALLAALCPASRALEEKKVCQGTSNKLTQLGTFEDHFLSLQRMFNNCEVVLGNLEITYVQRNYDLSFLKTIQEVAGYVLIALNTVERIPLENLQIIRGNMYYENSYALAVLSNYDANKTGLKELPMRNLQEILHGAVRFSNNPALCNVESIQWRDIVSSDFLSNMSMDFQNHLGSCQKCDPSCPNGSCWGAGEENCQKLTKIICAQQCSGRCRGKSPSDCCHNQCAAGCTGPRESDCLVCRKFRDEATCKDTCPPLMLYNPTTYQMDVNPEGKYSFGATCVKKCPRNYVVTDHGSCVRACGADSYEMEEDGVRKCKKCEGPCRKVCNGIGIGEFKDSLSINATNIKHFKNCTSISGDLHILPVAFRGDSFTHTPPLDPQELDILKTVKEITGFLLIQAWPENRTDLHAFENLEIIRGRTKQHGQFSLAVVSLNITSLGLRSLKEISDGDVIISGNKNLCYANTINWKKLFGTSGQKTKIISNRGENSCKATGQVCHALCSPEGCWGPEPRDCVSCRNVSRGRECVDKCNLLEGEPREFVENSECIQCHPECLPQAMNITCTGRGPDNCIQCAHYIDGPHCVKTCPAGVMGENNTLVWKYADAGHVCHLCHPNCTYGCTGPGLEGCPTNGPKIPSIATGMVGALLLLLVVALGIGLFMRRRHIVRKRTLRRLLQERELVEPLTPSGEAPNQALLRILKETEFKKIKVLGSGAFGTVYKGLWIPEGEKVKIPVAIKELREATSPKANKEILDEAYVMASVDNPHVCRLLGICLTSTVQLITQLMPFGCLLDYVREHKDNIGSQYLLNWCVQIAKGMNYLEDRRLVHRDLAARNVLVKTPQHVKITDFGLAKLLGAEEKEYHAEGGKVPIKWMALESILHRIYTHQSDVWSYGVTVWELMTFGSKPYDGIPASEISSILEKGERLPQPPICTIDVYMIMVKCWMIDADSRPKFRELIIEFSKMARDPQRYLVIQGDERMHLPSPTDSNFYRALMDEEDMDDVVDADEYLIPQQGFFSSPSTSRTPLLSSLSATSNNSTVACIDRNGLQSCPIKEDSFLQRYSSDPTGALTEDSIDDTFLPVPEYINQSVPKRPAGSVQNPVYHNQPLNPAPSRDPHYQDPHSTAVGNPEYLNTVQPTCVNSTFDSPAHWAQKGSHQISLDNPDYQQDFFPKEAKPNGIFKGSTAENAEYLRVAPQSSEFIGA

Broadly, the IC50 is the concentration needed to halve the response being measured. A word on the inhibition: it is the share of the control response that was lost under treatment. Consider `CCN(CC)c1ncc2c(n1)CCN(C(=O)c1cc(Cc3n[nH]c(=O)c4ccccc34)ccc1F)C2`, for which the IC50 is 66.8 µM in [1]; more than 200 µM in assay [2]; 55.8 µM in [3]; more than 200 µM in [6]; 28.4 µM in assay [7]. For the same molecule, the values for the inhibition at 10 µM in [4] and in [8] were 21.6% and 37.5%, respectively. Further, the CI in assay [5] is listed as 0.82.

`CN(C)CCN(C)c1ncc2c(n1)CCN(C(=O)c1cc(Cc3n[nH]c(=O)c4ccccc34)ccc1F)C2`: the CI in [9] is 0.86. Moreover, the IC50 in [1] is more than 200 µM; in assay [2] it was more than 200 µM; in [3], 122 µM; in [6], more than 200 µM; in assay [7], 66.9 µM. The inhibition at 25 µM in assay [10] worked out at 24.6%; in assay [11] it was 43.9%.

On to `O=C(c1cc(Cc2n[nH]c(=O)c3ccccc23)ccc1F)N1CCc2nc(N3CCCC3)ncc2C1`, for which, in assay [9], the CI is on record as 0.61. Moreover, the IC50 is 7.81 µM in assay [1]; more than 200 µM in [2]; 144 µM in assay [3]; more than 200 µM in assay [6]; 77 µM in assay [7]. The values for the inhibition at 25 µM in assay [10] and in assay [11] were 24.9% and 40.9%, respectively.

Regarding `O=C(c1cc(Cc2n[nH]c(=O)c3ccccc23)ccc1F)N1CCN(C(=O)C2CC2)CC1` [OLAPARIB], the CI in [9] turned out to be 0.88. Besides, the IC50 in assay [1] was more than 200 µM; in assay [2], more than 200 µM; in assay [3], 409 µM; in [12], 200 µM. The inhibition at 25 µM in assay [10] was found to be 23.5%; in [11] it was 27.9%.

Consider `CCCCN(CCCC)c1ncc2c(n1)CCN(C(=O)c1cc(Cc3n[nH]c(=O)c4ccccc34)ccc1F)C2`, for which, in assay [9], the CI turned out to be 0.79. Moreover, the IC50 was more than 200 µM in [1]; more than 200 µM in assay [2]; 106 µM in assay [3]; 21.2 µM in assay [6]; 13.3 µM in [7]. In addition, the figures for the inhibition at 25 µM in assay [10] and in assay [11] were 27.4% and 39.6%, respectively.

With `CN1CCN(c2ncc3c(n2)CCN(C(=O)c2cc(Cc4n[nH]c(=O)c5ccccc45)ccc2F)C3)CC1`, in assay [9], the CI was 0.67. Further, the IC50 in assay [1] is 53.4 µM; in [2], more than 200 µM; in assay [3] it was 72.8 µM; in assay [6], 95.7 µM; in [7], 46.3 µM. In addition, the inhibition at 25 µM in assay [10] was 37.4%; in [11], 55.8%.

On to `CCN1CCN(c2ncc3c(n2)CCN(C(=O)c2cc(Cc4n[nH]c(=O)c5ccccc45)ccc2F)C3)CC1`, for which the CI in assay [9] worked out at 0.2. The IC50 is 137 µM in assay [1]; more than 200 µM in [2]; 90.1 µM in assay [3]; more than 200 µM in assay [6]; 88.8 µM in assay [7]. In addition, the inhibition at 25 µM turned out to be 9.13% in assay [10] and 45.7% in assay [11].

With `CCCN(CCC)c1ncc2c(n1)CCN(C(=O)c1cc(Cc3n[nH]c(=O)c4ccccc34)ccc1F)C2`, in [9], the CI is listed as 0.36. Besides, the IC50 in assay [1] was 20.3 µM; in assay [2] it was more than 200 µM; in [3] it was 126 µM; in assay [6] it was more than 200 µM; in assay [7], 92.9 µM. The inhibition at 25 µM in assay [10] amounted to 11.9%; in assay [11] it was 36.6%.

With `O=C(c1cc(Cc2n[nH]c(=O)c3ccccc23)ccc1F)N1CCc2nc(N3CCCCC3)ncc2C1`, the IC50 in [1] is more than 200 µM; in assay [2], more than 200 µM; in [3], 89.8 µM; in assay [6] it was 24.5 µM; in assay [7], 22.7 µM. For the same molecule, the inhibition at 17.5 µM in assay [13] was 43%; in assay [15], 18.9%. Also, in assay [14], the CI was found to be 0.44.

On to `O=C(c1cc(Cc2n[nH]c(=O)c3ccccc23)ccc1F)N1CCc2nc(N3CCOCC3)ncc2C1`, for which the inhibition result in assay [16], in assay [17] and in assay [19] was “Active” throughout. In addition, the CI in [9] was determined as 0.39. The IC50 in assay [1] is 3.23 µM; in assay [2], more than 200 µM; in [3] it was 199 µM; in assay [6], 50 µM; in [7], 18.7 µM; in assay [12] it was 15.6 µM. In assay [18], the inhibition worked out at 92.1%. In addition, the inhibition at 25 µM is 18.6% in assay [10] and 47.8% in assay [11].

For the origin of these results see ChEMBL document CHEMBL5120815, “Synthesis of novel dual target inhibitors of PARP and EGFR and their antitumor activities in triple negative breast cancers” (Bioorg Med Chem, 2022).
